A value given as a limit tells only on which side of the number the result lay.

In one assay the target is T1, BRD4(BD1) (Homo sapiens, UniProt O60885).
T1 construct: His; made in house
The assay can be described thus: BRD4 Alphalisa binding assay.
Conditions: not given
The procedure:
IC50 Measurements for Inhibitors Using BRD4 Alphalisa Binding Assay
His/[…] epitope tagged BRD4 BD142-168 was cloned, expressed and purified to homogeneity. BRD4 binding and inhibition was assessed by monitoring the engagement of biotinylated H4-tetraacetyl peptide (Millipore #12-379) with the target using the AlphaLisa technology (Perkin-Elmer). Specifically, in a 384 well ProxiPlate BRD4(BD1) (30 nM final) was combined with peptide (200 nM final) in 40 mM HEPES (pH 7.0), 40 mM NaCl, 1 mM DTT, 0.01% (w/v) BSA, and 0.008% (w/v) Brij-35 either in the presence of DMSO (final 1.2% DMSO) or compound dilution series in DMSO. After 20 minute incubation at room temperature Alpha streptavidin donor beads and AlphaLisa anti-Flag acceptor beads were added to a final concentration of 10 ug/mL each. After three hours equilibration plates were read on an Envision instrument and IC50s calculated using a four parameter non-linear curve fit.
Background: Alpha assays give light when donor and acceptor beads are brought close together.
The term IC50 denotes the midpoint of a concentration-inhibition curve. For `Cc1sc2c(c1C)C(c1ccc(Cl)cc1)=NC1(CC1)c1nnc(C)n1-2` [Compound 214, 4′-(4-Chlorophenyl)-2′,3′,9′-trimethylspiro[cyclopropane-1,6′-thieno[3,2-f][1,2,4]triazolo[4,3-a][1,4]diazepine]], the IC50 is below 500 nM.

The same assay, now with this note: BRD4(BD1) 30 nM, biotinylated H4-tetraacetyl peptide 200 nM; read-out: BRD4 Alphascreen IC50.
For the compound `Cc1sc2c(c1C)C(c1ccc(N)cc1)=N[C@]1(C[C@H]1C)c1nnc(C)n1-2` [Compound 221, 4-((1S,2R)-2,2′,3′,9′-tetramethylspiro[cyclopropane-1,6′-thieno[3,2-f][1,2,4]triazolo[4,3-a][1,4]diazepin]-4′-yl)aniline], the IC50 was below 500 nM.
As to `Cc1sc2c(c1C)C(c1ccc(Cl)cc1)=N[C@]1(C[C@H]1CN)c1nnc(C)n1-2` [Compound 206, ((1S,2S)-4′-(4-Chlorophenyl)-2′,3′,9′-trimethylspiro[cyclo-propane-1,6′-thieno[3,2-f][1,2,4]triazolo[4,3-a][1,4]diazepin]-2-yl)methanamine], the IC50 was below 500 nM.
On to `Cc1sc2c(c1C)C(c1ccc(Cl)cc1)=N[C@@]1(C[C@@H]1C)C(=O)N2` [Compound 218, (1R,2S)-5′-(4-chlorophenyl)-2,6′,7′-trimethylspiro[cyclopropane-1,3′-thieno[2,3-e][1,4]diazepin]-2′(1′H)-one], for which the IC50 was above 1000 nM.
With `Cc1nsc2c1C(c1ccc(Cl)cc1)=NC1(CC1)c1nnc(C)n1-2` [Compound 213, 4′-(4-chlorophenyl)-3′,9′-dimethylspiro[cyclopropane-1,6′-isothiazolo[4,5-f][1,2,4]triazolo[4,3-a][1,4]diazepine]], the IC50 is above 1000 nM.
As for `Cc1sc2c(c1C)C(c1ccc(Cl)cc1)=N[C@]1(C[C@H]1C)c1n[nH]c(=O)n1-2` [Compound 222, (1S,2R)-4′-(4-chlorophenyl)-2,2′,3′-trimethylspiro[cyclopropane-1,6′-thieno[3,2-f][1,2,4]triazolo[4,3-a][1,4]diazepin]-9′(8′H)-one 2,2,2-trifluoroacetic acid], the IC50 was above 1000 nM.
The same measure, in the same setting: for `Cc1sc2c(c1C)C(c1ccc(Cl)cc1)=NC1(CCC1)c1nnc(C)n1-2` [Compound 223, 4′-(4-chlorophenyl)-2′,3′,9′-trimethylspiro[cyclobutane-1,6′-thieno[3,2-f][1,2,4]triazolo[4,3-a][1,4]diazepine]] the value was below 500 nM; for `Cc1noc2c1-c1cn(C)nc1C(c1ccc(Cl)cc1)=NC2` [Compound 265, 6-(4-chlorophenyl)-1,8-dimethyl-4,8-dihydroisoxazolo[5,4-c]pyrazolo[4,3-e]azepine], above 1000 nM; for `Cc1sc2c(c1C)C(c1ccc(Cl)cc1)=N[C@]1(C[C@H]1C)c1nnc(C)n1-2` [Compound 220, (1S,2R)-4′-(4-chlorophenyl)-2,2′,3′,9′-tetramethyl-spiro[cyclopropane-1,6′-thieno[3,2-f][1,2,4]triazolo[4,3-a][1,4]diazepine]], below 500 nM.
Consider `Cc1nnc2n1-c1ccccc1C(c1ccc(Cl)cc1)=NC21CC1` [Compound 216, 6-(4-chlorophenyl)-1-methylspiro[benzo[f][1,2,4]triazolo[4,3-a][1,4]diazepine-4,1′-cyclopropane]], for which the half-maximal inhibitory concentration (IC50) was below 500 nM.
For `Cc1sc2c(c1C)C(c1ccc(Cl)cc1)=NC1(CC1C)c1nnc(C)n1-2` (racemic) [Compound 215, 4′-(4-chlorophenyl)-2,2′,3′,9′-tetramethylspiro[cyclopropane-1,6′-thieno[3,2-f][1,2,4]triazolo[4,3-a][1,4]diazepine]], the IC50 was below 500 nM.
As for `CCNC[C@@H]1C[C@]12N=C(c1ccc(Cl)cc1)c1c(sc(C)c1C)-n1c(C)nnc12` [Compound 208, N-(((1S,2S)-4′-(4-Chlorophenyl)-2′,3′,9′-trimethylspiro[cyclopropane-1,6′-thieno[3,2-f][1,2,4]triazolo[4,3-a][1,4]diazepin]-2-yl)methyl)ethanamine], the IC50 was below 500 nM.
As to `CCNC(=O)[C@@H]1C[C@@]12N=C(c1ccc(Cl)cc1)c1c(sc(C)c1C)-n1c(C)nnc12` [Compound 212, (1R,2R)-4′-(4-Chlorophenyl)-N-ethyl-2′,3′,9′-trimethylspiro-[cyclopropane-1,6′-thieno[3,2-f][1,2,4]triazolo[4,3-a][1,4]diazepine]-2-carboxamide], the IC50 is above 1000 nM.
Still for that read-out and setting: next, `CCNC(=O)[C@H]1C[C@@]12N=C(c1ccc(Cl)cc1)c1c(sc(C)c1C)-n1c(C)nnc12` [Compound 211, (1R,2S)-4′-(4-chlorophenyl)-N-ethyl-2′,3′,9′-trimethylspiro[cyclopropane-1,6′-thieno[3,2-f][1,2,4]triazolo[4,3-a][1,4]diazepine]-2-carboxamide]: above 1000 nM; `Cc1sc2c(c1C)C(c1ccc(Cl)cc1)=N[C@]1(C[C@H]1CO)c1nnc(C)n1-2` [Compound 203, ((1S,2R)-4′-(4-chlorophenyl)-2′,3′,9′-trimethylspiro[cyclopropane-1,6′-thieno[3,2-f][1,2,4]triazolo[4,3-a][1,4]diazepin]-2-yl)methanol]: below 500 nM.
On the same count and under the same terms, for `Cc1sc2c(c1C)C(c1ccc(Cl)cc1)=N[C@]1(C[C@H]1C(N)=O)c1nnc(C)n1-2` [Compound 205, (1S,2R)-4′-(4-Chlorophenyl)-2′,3′,9′-trimethylspiro[cyclo-propane-1,6′-thieno[3,2-f][1,2,4]triazolo[4,3-a][1,4]diazepine]-2-carboxamide] the value was 500 to 1000 nM; for `Cc1sc2c(c1C)C(c1ccc(Cl)cc1)=N[C@@]1(C[C@@H]1C)c1nnc(C)n1-2` [Compound 219, (1R,2S)-4′-(4-chlorophenyl)-2,2′,3′,9′-tetramethylspiro-[cyclopropane-1,6′-thieno[3,2-f][1,2,4]triazolo[4,3-a][1,4]diazepine]], below 500 nM; for `Cc1noc2c1-c1ccc(-c3ccc(N)nc3)cc1C(c1ccc(F)cc1)=NC21CC1` [Compound 251, 5-(6-(4-Fluorophenyl)-1-methylspiro[benzo[c]isoxazolo[4,5-e]azepine-4,1′-cyclopropan]-8-yl)pyridin-2-amine], below 500 nM.
With `COC[C@@H]1C[C@]12N=C(c1ccc(Cl)cc1)c1c(sc(C)c1C)-n1c(C)nnc12` [Compound 202, (1S,2R)-4′-(4-chlorophenyl)-2-(methoxymethyl)-2′,3′,9′-trimethylspiro[cyclopropane-1,6′-thieno[3,2-f][1,2,4]triazolo[4,3-a][1,4]diazepine]], the IC50 is below 500 nM.
As for `Cc1sc2c(c1C)C(c1ccc(Cl)cc1)=N[C@@]1(C[C@@H]1CO)c1nnc(C)n1-2` [Compound 210, ((1R,2S)-4′-(4-Chlorophenyl)-2′,3′,9′-trimethylspiro[cyclo-propane-1,6′-thieno[3,2-f][1,2,4]triazolo[4,3-a][1,4]diazepin]-2-yl)methanol], the IC50 was below 500 nM.
Same read-out and setting: next, `Cc1sc2c(c1C)C(c1ccc(Cl)cc1)=NC1(CC1)c1nncn1-2` [Compound 217, 4′-(4-Chlorophenyl)-2′,3′-dimethylspiro[cyclopropane-1,6′-thieno[3,2-f][1,2,4]triazolo[4,3-a][1,4]diazepine]]: above 1000 nM.
With `Cc1noc2c1-c1ccc(Cl)cc1C(c1ccc(F)cc1)=NC21CC1` [Compound 250, 8-Chloro-6-(4-fluorophenyl)-1-methylspiro[benzo[c]isoxazolo[4,5-e]azepine-4,1′-cyclopropane]], the IC50 was above 1000 nM.
Consider `Cc1sc2c(c1C)C(c1ccc(Cl)cc1)=NC1(CNC1)c1nnc(C)n1-2` [Compound 224, 4′-(4-chlorophenyl)-2′,3′,9′-trimethylspiro[azetidine-3,6′-thieno[3,2-f][1,2,4]triazolo[4,3-a][1,4]diazepine]], for which the IC50 is above 1000 nM.
For `COC[C@H]1C[C@@]12N=C(c1ccc(Cl)cc1)c1c(sc(C)c1C)-n1c(C)nnc12` [Compound 209, (1R,2S)-4′-(4-chlorophenyl)-2-(methoxymethyl)-2′,3′,9′-trimethylspiro[cyclopropane-1,6′-thieno[3,2-f][1,2,4]triazolo[4,3-a][1,4]diazepine]], the IC50 was below 500 nM.
Consider `CC(=O)NC[C@@H]1C[C@]12N=C(c1ccc(Cl)cc1)c1c(sc(C)c1C)-n1c(C)nnc12` [Compound 207, N-(((1S,2S)-4′-(4-Chlorophenyl)-2′,3′,9′-trimethylspiro[cyclopropane-1,6′-thieno[3,2-f][1,2,4]triazolo[4,3-a][1,4]diazepin]-2-yl)methyl)acetamide], for which the IC50 was below 500 nM.
For `CCNC(=O)[C@@H]1C[C@]12N=C(c1ccc(Cl)cc1)c1c(sc(C)c1C)-n1c(C)nnc12` [Compound 204, (1S,2R)-4′-(4-chlorophenyl)-N-ethyl-2′,3′,9′-trimethylspiro[cyclopropane-1,6′-thieno[3,2-f][1,2,4]triazolo[4,3-a][1,4]diazepine]-2-carboxamide], the IC50 is above 1000 nM.
As for `Cc1sc2c(c1C)C(c1ccc(Cl)cc1)=NC1(COC1)c1nnc(C)n1-2` [Compound 226, 4′-(4-Chlorophenyl)-2′,3′,9′-trimethylspiro[oxetane-3,6′-thieno[3,2-f][1,2,4]triazolo[4,3-a][1,4]diazepine]], the IC50 was below 500 nM.

These data come from patent US9249161B2, “Bromodomain inhibitors and uses thereof” (Constellation Pharmaceuticals, Inc., priority 2010, dated 2016).
